From article PMC5787466, “Accelerated bottom-up drug design platform enables the discovery of novel stearoyl-CoA desaturase 1 inhibitors for cancer therapy” (Oncotarget, 2017)
Like-named read-outs stand apart in the source and are kept apart here.

Tests used:
[1] = target: T1, SCD1 protein extracted from murine liver (Mus musculus, UniProt P13516); test: In vitro SCD1 enzymatic inhibition by LC/MS (stearoyl-CoA to oleoyl-CoA, liver microsomes); format: biochemical; conditions: n=2
T1 construct: Microsomes were isolated from murine liver using Microsome Isolation Kit (BioVision); from tissue; host or cells: murine liver microsomes
T1 sequence (P13516 1-355): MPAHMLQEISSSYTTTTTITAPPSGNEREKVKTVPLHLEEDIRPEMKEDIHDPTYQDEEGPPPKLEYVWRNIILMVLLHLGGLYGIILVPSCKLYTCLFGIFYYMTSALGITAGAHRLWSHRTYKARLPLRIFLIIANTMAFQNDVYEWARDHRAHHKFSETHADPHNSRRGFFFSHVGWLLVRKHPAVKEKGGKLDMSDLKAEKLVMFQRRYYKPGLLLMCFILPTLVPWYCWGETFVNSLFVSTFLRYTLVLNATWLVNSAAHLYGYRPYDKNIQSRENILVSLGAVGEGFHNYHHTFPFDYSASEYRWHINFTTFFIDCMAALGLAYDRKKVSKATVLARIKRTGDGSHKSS
Description: After synthesis feasibility and cost analysis, we synthesized 38 of the selected compounds. […] To evaluate inhibition of SCD1 by these molecules, we used LC/MS to quantify changes in SCD1-catalyzed conversion of stearoyl-CoA to oleoyl-CoA in response to drug treatments in vitro using SCD1 protein extracted from murine liver (Figure 3c, Supplementary Figure 2g). […] Synthesis routes and spectral data including NMR and MS are also provided (Supplementary Figures 3-6).
Microsomes were isolated from murine liver using Microsome Isolation Kit (BioVision) per the manufacturer protocol. […] To quantify biotransformation of ^13C18-stearoyl CoA to ^13C18-oleoyl CoA for drug treatments relative to vehicle controls, supernatants were evaluated using the LC/MS^2 acyl CoA quantitation method of Magnes et al. and adapting selected reaction monitoring (SRM) for isotope-labeled acyl CoAs. […] SRM signal areas for isotope-labeled acyl CoAs were measured relative to the heptadecanoyl CoA I.S. using XCalibur software (Thermo), and percent enzyme inhibition determined by comparing ^13C18-oleoyl CoA quantities between treatment and DMSO control assays. […]

468 known kinases = test: Kinome scan (binding)
Description: Induction of the unfolded protein response (UPR) is a known biological response to SCD1 inhibition in tumor cells. […] The addition of exogenous OA was sufficient to reverse the activation of ATF6 (Figure 4b). Moreover, exogenous OA inhibited SSI-(1-4) mediated upregulation of the UPR markers BiP (heat shock 70 kDa protein) and CHOP (damage inducible transcript 3) protein levels in both A498 and ACHN cells (Figure 4c). Collectively these findings confirm that SSI-(1-4) reliably recapitulates the biological responses observed in tumor cells treated with known SCD1 inhibitors. […] Thus, SSI-4 is not predicted to have any major off-target effects through kinase inhibition (Supplementary Figures 7 and 8). […]
of PLS factors. T-value filter (t-value < 2.0) was used to eliminate independent variables overly sensitive to incremental changes from the training set. For structural components, both atom-based and pharmacophore features based were examined.
The regression with m PLS factors, fitted to activities is given as: […]
i =1 , where m = number of PLS factors, b is regression coefficient, vector y represents activity values in the training set. […]
A final Z-filtering mechanism was applied to reduce the dataset to a few select compounds for synthesis and experimental screening by using combined normalized scoring. The final Z-score for each compound was determined as: […]

[2] = Pharmacokinetics after oral (PO) and intravenous (IV) administration, serum; format: in vivo, rat; conditions: male, C57BL/6, mouse; for bioavailability: absolute, from AUC0-last and nominal dose; for Cmax / half-life: po
Method: (e) Maximum serum concentration (Cmax) of SSI-4 before the administration of a second dose. (f) AUC curve to infinite time. (g) Summary of pharmacokinetics for SSI-4, where absolute bioavailability (%) is quantitated with AUC0-last and nominal dose.
Pharmacokinetic assessment was performed for SSI-4 administered to fasted male C57BL/6 mice either intravenously (IV) or by oral gavage (PO) in DMSO:PEG400:water (10:70:20) as a clear solution at 5 mg/mL (IV dosing), and 1,3 or 10 mg/mL (respectively for the PO dosing). Serum analysis was performed by LC-MS-MS.

[3] = Seven-day oral toxicology study (body weight, serum chemistry); format: in vivo, Sprague Dawley rats
Method: . […] Chronic treatment at the highest dose in tumor-bearing animals appeared to be well tolerated, with ‹10% reduction in body mass even at the highest dose of 600mg/kg after 4.5 weeks of daily treatment (Supplementary Figure S9d).
Figure 7 SSI-4 has a favorable toxicity profile (a-b) Weight changes in male or female Sprague Dawley rats treated daily with indicated doses of SSI-4 for seven days (n=3 per group). (c-d) Serum profile of indicated enzymes measured on day 8 in male or female Sprague Dawley rats treated daily with indicated doses of SSI-4 for seven days (n=3 per group). (BUN= blood urea nitrogen; AST= aspartate aminotransferase; ALT= alanine aminotransferase; ALK/Phos= alkaline phosphatase).
Sprague dawley rats (6-8 weeks old M/F) were orally gavaged with SS1-4 at the indicated dose daily, for a duration of seven days. For each dose levels 3 male and 3 females were placed on study. Rats were clinically observed and weighed daily. On day 8 rats were euthanatized and blood was collected by cardiac puncture. Blood chemistry was measured by STAT Veterinary laboratory (San Diego CA).

IC50 [1]: 1.9 nM
number of 403 non-mutant kinases bound (468 known kinases; 10 nM): none
number of 403 non-mutant kinases bound (468 known kinases; 100 nM, the kinase bound is CDKL2): 1
bioavailability ([2]; oral 10 mg/kg): 119%
bioavailability ([2]; oral 30 mg/kg): 152%
bioavailability ([2]; oral 100 mg/kg): 212%
AUC ([2]; oral, 10 mg/kg): 20900 ng·h/mL
AUC ([2]; oral, 30 mg/kg): 71200 ng·h/mL
AUC ([2]; oral, 100 mg/kg): 336000 ng·h/mL
Cmax ([2]; 10 mg/kg): ~4320 ng/mL
half-life ([2]; 10 mg/kg, oral, 10 mg/kg, read-out: T1/2 (converted)): 209 min
Cmax ([2]; 30 mg/kg): ~15900 ng/mL
half-life ([2]; 30 mg/kg, oral, 30 mg/kg, read-out: T1/2 (converted)): 163 min
Cmax ([2]; 100 mg/kg): ~43300 ng/mL
half-life ([2]; 100 mg/kg, oral, 100 mg/kg, read-out: T1/2 (converted)): 236 min
half-life ([2]; 100 mg/kg, range over the oral doses 10, 30, 100 mg/kg, read-out: median serum terminal half-life (T1/2)): 163 to 236 min
Structure (SMILES): CNC(=O)c1ccnc(NC(=O)N2CCC(Oc3ccccc3Cl)CC2)c1 [SSI-4]
liver enzymes ([3]; all doses tested, males and females, day 8): No abnormalities
changes in body weight ([3]; females, all doses tested, daily oral for one week): no significant changes
changes in body weight ([3]; males, daily oral dose of 300mg/kg for one week): < 10%
